Blank lines part the entries; values can stand above or below the compound they belong to.
How the values were obtained:
BeWo = experiment: Cytotoxicity against human Bewo cells assessed as cell growth inhibition after 72 hrs by MTT assay; type: functional, cell-based
[1] = Cytotoxicity against human HL60 cells assessed as cell growth inhibition after 72 hrs by MTT assay; type: functional, cell-based; settings: HL-60, 72 h
MCF7 = experiment: Cytotoxicity against human MCF7 cells assessed as cell growth inhibition after 72 hrs by MTT assay; type: functional, cell-based; settings: MCF7, 72 h
Mus musculus [2] = experiment: Toxicity in ICR mouse assessed as convulsions on limbs at 100 mg/kg, ig measured after 14 days; type: organism-based, Limb; settings: in vivo, po, 336 h
Mus musculus [3] = experiment: Toxicity in ICR mouse assessed as body weight loss at 65.6 mg/kg, ig measured after 14 days; type: organism-based; settings: in vivo, po, 336 h
Mus musculus [4] = experiment: Toxicity in ICR mouse assessed as clinical signs parameters at 65.6 mg/kg, ig measured after 14 days; type: organism-based; settings: in vivo, po, 336 h
Mus musculus [5] = experiment: Toxicity in ICR mouse assessed as loss of locomotor activity at 90 mg/kg, ig measured after 14 days; type: organism-based; settings: in vivo, po, 336 h
Mus musculus [6] = experiment: Toxicity in ICR mouse assessed as convulsions on limbs at 90 mg/kg, ig measured after 14 days; type: organism-based, Limb; settings: in vivo, po, 336 h
Mus musculus [7] = experiment: Toxicity in ICR mouse assessed as loss of locomotor activity at 72.9 mg/kg, ig measured after 14 days; type: organism-based; settings: in vivo, po, 336 h
[8] = Toxicity in ICR mouse assessed as mortality at 65.6 mg/kg, ig measured after 14 days; type: organism-based; settings: in vivo, po
[9] = Toxicity in ig dosed ICR mouse assessed as mortality measured after 14 days; type: organism-based; settings: in vivo, po
CCRF S-180 [10] = experiment: Antitumor activity against mouse S180 cells xenografted in ICR mouse assessed as tumor growth inhibition at 10 mg/kg, ig administered once daily for 7 days starting from second day post xenograft measured after 10 days; type: functional; settings: CCRF S-180, po, read-out: TGI
Mus musculus [11] = experiment: Toxicity in ICR mouse assessed as convulsions on limbs at 72.9 mg/kg, ig measured after 14 days; type: organism-based, Limb; settings: in vivo, po, 336 h
CCRF S-180 [12] = experiment: Antitumor activity against mouse S180 cells xenografted in ICR mouse assessed as tumor growth inhibition at 5 mg/kg, ig administered once daily for 7 days starting from second day post xenograft measured after 10 days; type: functional; settings: CCRF S-180, po, read-out: TGI
[13] = Toxicity in ICR mouse assessed as mortality at 72.9 mg/kg, ig measured after 14 days; type: organism-based; settings: in vivo, po
Mus musculus [14] = experiment: Toxicity in ICR mouse assessed as respiratory depression at 81 mg/kg, ig measured after 14 days; type: organism-based; settings: in vivo, po, 336 h
Mus musculus [15] = experiment: Toxicity in ICR mouse assessed as loss of locomotor activity at 81 mg/kg, ig measured after 14 days; type: organism-based; settings: in vivo, po, 336 h
Mus musculus [16] = experiment: Toxicity in ICR mouse assessed as pulmonary congestion at 72.9 mg/kg, ig measured after 14 days; type: organism-based; settings: in vivo, po, 336 h
Mus musculus [17] = experiment: Toxicity in ICR mouse assessed as pulmonary congestion at 100 mg/kg, ig measured after 14 days; type: organism-based; settings: in vivo, po, 336 h
Mus musculus [18] = experiment: Toxicity in ICR mouse assessed as respiratory depression at 72.9 mg/kg, ig measured after 14 days; type: organism-based; settings: in vivo, po, 336 h
Mus musculus [19] = experiment: Toxicity in ICR mouse assessed as respiratory depression at 90 mg/kg, ig measured after 14 days; type: organism-based; settings: in vivo, po, 336 h
Mus musculus [20] = experiment: Toxicity in ICR mouse assessed as loss of locomotor activity at 100 mg/kg, ig measured after 14 days; type: organism-based; settings: in vivo, po, 336 h
CCRF S-180 [21] = experiment: Antitumor activity against mouse S180 cells xenografted in ICR mouse assessed as tumor growth inhibition at 20 mg/kg, ig administered once daily for 7 days starting from second day post xenograft measured after 10 days; type: functional; settings: CCRF S-180, po, read-out: TGI
Mus musculus [22] = experiment: Toxicity in ICR mouse assessed as pulmonary congestion at 81 mg/kg, ig measured after 14 days; type: organism-based; settings: in vivo, po, 336 h
Mus musculus [23] = experiment: Toxicity in ICR mouse assessed as pulmonary congestion at 90 mg/kg, ig measured after 14 days; type: organism-based; settings: in vivo, po, 336 h
Mus musculus [24] = experiment: Toxicity in ICR mouse assessed as respiratory depression at 100 mg/kg, ig measured after 14 days; type: organism-based; settings: in vivo, po, 336 h
Mus musculus [25] = experiment: Toxicity in ICR mouse assessed as convulsions on limbs at 81 mg/kg, ig measured after 14 days; type: organism-based, Limb; settings: in vivo, po, 336 h
[26] = target: T1, Hepatocyte growth factor receptor (Homo sapiens, UniProt P08581); experiment: Inhibition of cMET (unknown origin) using TK substrate-biotin as substrate preincubated with compound followed by substrate addition for 40 mins measured after 1 hr by HTRF assay
T1 sequence (P08581 whole entry): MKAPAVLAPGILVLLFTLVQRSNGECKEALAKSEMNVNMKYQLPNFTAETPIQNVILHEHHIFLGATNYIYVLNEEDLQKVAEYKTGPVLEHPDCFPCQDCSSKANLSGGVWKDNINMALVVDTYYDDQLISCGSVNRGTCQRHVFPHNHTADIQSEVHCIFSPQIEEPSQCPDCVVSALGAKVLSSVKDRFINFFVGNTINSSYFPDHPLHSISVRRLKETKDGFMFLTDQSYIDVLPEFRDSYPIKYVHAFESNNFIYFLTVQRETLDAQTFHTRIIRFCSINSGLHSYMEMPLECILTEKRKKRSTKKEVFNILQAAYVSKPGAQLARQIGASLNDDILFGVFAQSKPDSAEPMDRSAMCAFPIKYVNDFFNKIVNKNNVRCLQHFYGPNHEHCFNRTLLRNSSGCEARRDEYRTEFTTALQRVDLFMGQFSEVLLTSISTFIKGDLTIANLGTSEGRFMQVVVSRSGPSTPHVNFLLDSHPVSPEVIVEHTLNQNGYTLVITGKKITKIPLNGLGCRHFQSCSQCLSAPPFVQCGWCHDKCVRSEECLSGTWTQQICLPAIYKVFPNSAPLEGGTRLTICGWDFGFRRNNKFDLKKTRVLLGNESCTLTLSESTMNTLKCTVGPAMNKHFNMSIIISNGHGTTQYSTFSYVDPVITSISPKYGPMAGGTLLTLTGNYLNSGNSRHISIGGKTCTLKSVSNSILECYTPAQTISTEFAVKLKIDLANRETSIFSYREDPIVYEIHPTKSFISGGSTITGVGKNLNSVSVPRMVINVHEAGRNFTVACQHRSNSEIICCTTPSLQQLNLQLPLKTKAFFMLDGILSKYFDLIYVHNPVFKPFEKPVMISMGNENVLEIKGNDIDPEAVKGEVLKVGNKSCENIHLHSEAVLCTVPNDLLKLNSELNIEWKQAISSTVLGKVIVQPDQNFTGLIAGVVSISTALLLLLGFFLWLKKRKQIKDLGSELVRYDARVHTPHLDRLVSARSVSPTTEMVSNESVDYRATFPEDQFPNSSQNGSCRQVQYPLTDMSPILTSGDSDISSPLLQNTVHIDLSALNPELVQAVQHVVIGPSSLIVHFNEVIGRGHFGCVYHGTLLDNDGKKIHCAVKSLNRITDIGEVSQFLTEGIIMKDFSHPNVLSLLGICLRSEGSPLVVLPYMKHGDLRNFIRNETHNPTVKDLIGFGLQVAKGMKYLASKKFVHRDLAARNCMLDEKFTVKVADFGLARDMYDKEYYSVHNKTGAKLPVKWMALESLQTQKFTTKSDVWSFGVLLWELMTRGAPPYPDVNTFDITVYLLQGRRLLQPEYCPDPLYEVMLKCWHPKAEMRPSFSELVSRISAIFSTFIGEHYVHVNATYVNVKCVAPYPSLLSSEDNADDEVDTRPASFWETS

[27] = target: T1, Hepatocyte growth factor receptor; experiment: Inhibition of cMET (unknown origin) using poly(Glu-Tyr) substrate incubated for 60 mins by ELISA

SMILES: c1ccc(CCNc2nnc3nncn3n2)cc1
IC50 (BeWo): 2.49 µM | IC50 [1]: 4.15 µM | IC50 (MCF7): 1.24 µM

SMILES: c1ccc(CN2CCN(c3nnc4nncn4n3)CC2)cc1
IC50 (BeWo): 5.1 µM | IC50 [1]: 14.2 µM | IC50 (MCF7): 27.3 µM

SMILES: CCCCNc1nnc2nncn2n1
IC50 (BeWo): 8.64 µM | IC50 [1]: 36.2 µM | IC50 (MCF7): 13.7 µM

SMILES: O=C(c1ccc(Cl)cc1)N1CCN(c2nnc3nncn3n2)CC1
IC50 (BeWo): 7.51 µM | IC50 [1]: 12.3 µM | IC50 (MCF7): 12.8 µM

SMILES: OCCNc1nnc2nncn2n1
IC50 (BeWo): 3.31 µM | IC50 [1]: 45.3 µM | IC50 (MCF7): 11.6 µM

SMILES: CCC(=O)N1CCN(c2nnc3nncn3n2)CC1
IC50 (BeWo): 13.7 µM | IC50 [1]: 10.1 µM | IC50 (MCF7): 14.8 µM

SMILES: c1nnc2nnc(N3CCOCC3)nn12
Activity (Mus musculus [2]): Toxic | Activity (Mus musculus [3]): Non-toxic | Activity (Mus musculus [4]): Non-toxic | Activity (Mus musculus [5]): Toxic | Activity (Mus musculus [6]): Toxic | Activity (Mus musculus [7]): Toxic | mortality at 336 h [8]: 0% | LD50 at 336 h [9]: 82.5 mg/kg | inhibition in vivo at 10 mg/kg (CCRF S-180 [10]): 63% | Activity (Mus musculus [11]): Toxic | inhibition in vivo at 5 mg/kg (CCRF S-180 [12]): 24.2% | mortality at 336 h [13]: 25% | Activity (Mus musculus [14]): Toxic | Activity (Mus musculus [15]): Toxic | Activity (Mus musculus [16]): Toxic | IC50 (BeWo): 1.3 µM | Activity (Mus musculus [17]): Toxic | IC50 [1]: 1.45 µM | Activity (Mus musculus [18]): Toxic | Activity (Mus musculus [19]): Toxic | Activity (Mus musculus [20]): Toxic | inhibition in vivo at 20 mg/kg (CCRF S-180 [21]): 27.9% | Activity (Mus musculus [22]): Toxic | Activity (Mus musculus [23]): Toxic | Activity (Mus musculus [24]): Toxic | Activity (Mus musculus [25]): Toxic | IC50 [26]: 11.8 µM | IC50 (MCF7): 2.24 µM

IC50 [26]: 23.7 µM
SMILES: CC(C)C(=O)N1CCN(c2nnc3nncn3n2)CC1
IC50 (BeWo): 1.09 µM | IC50 [1]: 1.61 µM | IC50 (MCF7): 1.81 µM

SMILES: c1nnc2nnc(NC3CCCC3)nn12
IC50 (BeWo): 34.6 µM | IC50 [1]: 38.1 µM | IC50 (MCF7): 88.2 µM

SMILES: c1nnc2nnc(N3CCCCC3)nn12
IC50 (BeWo): 10.8 µM | IC50 [1]: 23.6 µM | IC50 (MCF7): 27.2 µM

SMILES: Cc1cc(C)n(-c2nnc3nncn3n2)n1
IC50 (BeWo): 47.3 µM | IC50 [1]: 63.3 µM | IC50 (MCF7): > 100 µM

SMILES: CCCNc1nnc2nncn2n1
IC50 (BeWo): 14.3 µM | IC50 [1]: 15.1 µM | IC50 (MCF7): 19.8 µM

SMILES: Cc1ccc(C(=O)N2CCN(c3nnc4nncn4n3)CC2)cc1
IC50 (BeWo): 14.3 µM | IC50 [1]: 9.31 µM | IC50 (MCF7): 15.9 µM

SMILES: c1nnc2nnc(N3CCCC3)nn12
IC50 (BeWo): 4.29 µM | IC50 [1]: 24.4 µM | IC50 (MCF7): 5.13 µM

SMILES: CC(Nc1nnc2nncn2n1)C(=O)O (stereo not drawn)
IC50 (BeWo): 82.2 µM | IC50 [1]: 74.2 µM | IC50 (MCF7): > 100 µM

SMILES: O=C(Cc1ccccc1)N1CCN(c2nnc3nncn3n2)CC1
IC50 (BeWo): 2.77 µM | IC50 [1]: 1.85 µM | IC50 (MCF7): 3.08 µM

SMILES: Nc1nnc2nncn2n1
IC50 (BeWo): 17.3 µM | IC50 [1]: 68.5 µM | IC50 (MCF7): 46.5 µM

SMILES: O=C(c1ccc([N+](=O)[O-])cc1)N1CCN(c2nnc3nncn3n2)CC1
IC50 (BeWo): 3.1 µM | IC50 [1]: 17.2 µM | IC50 (MCF7): 4.53 µM

SMILES: CC(=O)N1CCN(c2nnc3nncn3n2)CC1
IC50 (BeWo): 13.1 µM | IC50 [1]: 14.7 µM | IC50 (MCF7): 13.9 µM

SMILES: CN1CCN(c2nnc3nncn3n2)CC1
IC50 (BeWo): 7.99 µM | IC50 [1]: 8.54 µM | IC50 (MCF7): 21.6 µM

IC50 [26]: 7.9 µM
SMILES: O=C(C1CCCCC1)N1CCN(c2nnc3nncn3n2)CC1
IC50 (BeWo): 1.9 µM | IC50 [1]: 1.16 µM | IC50 (MCF7): 1.26 µM

IC50 [27]: 6 nM
SMILES: COc1ccc2c(OCc3nnc4nnc(-c5ccccc5)nn34)ccnc2c1

SMILES: OCC(CO)(CO)Nc1nnc2nncn2n1
IC50 (BeWo): 12.4 µM | IC50 [1]: > 100 µM | IC50 (MCF7): > 100 µM

SMILES: CC(C)(C)C(=O)N1CCN(c2nnc3nncn3n2)CC1
IC50 (BeWo): 2.41 µM | IC50 [1]: 1.38 µM | IC50 (MCF7): 5.51 µM

SMILES: c1nnc2nnc(NC3CCCCC3)nn12
IC50 (BeWo): 2.65 µM | IC50 [1]: 6.61 µM | IC50 (MCF7): 3.51 µM

SMILES: CC(C)COC(=O)N1CCN(c2nnc3nncn3n2)CC1
IC50 (BeWo): 13.1 µM | IC50 [1]: 7.93 µM | IC50 (MCF7): 5.39 µM

SMILES: CCCCCC(=O)N1CCN(c2nnc3nncn3n2)CC1
IC50 (BeWo): 2.96 µM | IC50 [1]: 3.61 µM | IC50 (MCF7): 5.26 µM

SMILES: CCCC(=O)N1CCN(c2nnc3nncn3n2)CC1
IC50 (BeWo): 6.73 µM | IC50 [1]: 9.84 µM | IC50 (MCF7): 6.91 µM

SMILES: CN(C)c1nnc2nncn2n1
IC50 (BeWo): 0.61 µM | IC50 [1]: 4.84 µM | IC50 (MCF7): 7.76 µM

SMILES: O=C(c1ccccc1)N1CCN(c2nnc3nncn3n2)CC1
IC50 (BeWo): 5.87 µM | IC50 [1]: 4.67 µM | IC50 (MCF7): 8.38 µM

SMILES: CCCCC(=O)N1CCN(c2nnc3nncn3n2)CC1
IC50 (BeWo): 1.72 µM | IC50 [1]: 3.13 µM | IC50 (MCF7): 2.76 µM

Source: ChEMBL document CHEMBL3808385, “Synthesis, antitumor evaluation and molecular docking studies of [1,2,4]triazolo[4,3-b][1,2,4,5]tetrazine derivatives” (Bioorg Med Chem Lett, 2016)
